From paper PMC8847695 (Frontiers in Chemistry, 2022)

Assays:
Type in all cases: binding
CAMK1G (1-320) = molecular target: T1, CAMK1G (1-320) (Homo sapiens, UniProt Q96NX5); experiment: STD-NMR fragment screening, CAMK1G; details: for CAMK1G (STD-NMR hit flag): 1 = hit, 0 = no hit
T1 construct: made in house; host or cells: E. coli BL21 (DE3) pLysS
Description: (§1) All fragments were stored at −20°C as solids in argon flushed glass bottles. For NMR screening, fragments were weighed and dissolved in DMSO-d6 to a stock concentration of 300 mM. Mother plates were prepared with a 100 mM concentration. From these plates, daughter plates were prepared with the fragments mixed in the plates to a concentration of 50 mM for each fragment. Daughter plates were opened a maximum of eight times. The plates were argon flushed and sealed with a HT121TS (HTA) and Foil Heat Seal (Biozym).
(§2) For long time measurements, like the protein ^1H NMR spectrum, the buffer exchange was performed twice to reduce residual buffer peaks. All experiments were performed on a Bruker Avance III HDX 700 instrument, equipped with a 5 mm Prodigy TCI cryo-probehead. For every protein, a standard ^1H NMR experiment with 1 k scans and water suppression through presaturation was performed. […] The on-resonance frequency, which was determined from the ^1H NMR spectra of the protein, was between 0.5 and 0.6 ppm; 40 ppm was used as the off-resonance frequency. For an interleaved acquisition of the on- and off-resonance, a pseudo-2D scheme was applied. The saturation was done by Gaussian pulses with a length of 50 ms and 60 dB of attenuation, with an interpulse delay of 1 ms leading to an excitation bandwidth of about 42 Hz. The screening was done with 16 scans of on- and off-resonance scans each, with a 3 s saturation time. The samples contained final concentrations of 20 µM protein, 10% (^V/V) DMSO-d6, and 1 mM of each of the two fragments. A ^1H-NMR experiment was performed for each compound to act as a reference spectrum in the STD experiments. All NMR experiments were carried out at 25°C.
(§3) Fifteen of these compounds contain the same halogen twice. No compound bears mixtures of different halogen atoms. Four proteins (AAK1, CAMK1G, IDO1, and DOT1L) were screened against this HEFLib using STD-NMR. A fragment was considered a hit if the peak intensity in the difference spectrum was three times higher than the local background noise. […] Chemical compatibility and peak complementarity were assured for these mixtures. Samples containing more than two fragments were avoided to minimize the possible target competition and to decrease the risk of fragment interactions. […] The ^1H reference NMR spectrum of the mixture is shown in red for comparison. […] As fragment mixtures can lead to competitive effects between their fragments, it is not advised to use the quantification of peak mixtures for hit ranking.

AAK1 (121-471) = AAK1 (121-471) (Homo sapiens, UniProt Q2M2I8); experiment: STD-NMR fragment screening, AAK1; details: for STD-NMR hit: 1 mM fragment, 20 µM protein, hit if peak in difference spectrum three times higher than local noise; for AAK1 (STD-NMR hit flag): 1 = hit, 0 = no hit
Description: as §1, §2, §3

IDO1 (1-435) = molecular target: T2, IDO1 (1-435) (Homo sapiens, UniProt P14902); experiment: STD-NMR fragment screening, IDO1; details: for IDO1 (STD-NMR hit flag): 1 = hit, 0 = no hit
T2 construct: His-tag of pET15b with TEV site (thrombin site replaced) (cleaved yes); made in house; host or cells: E. coli Rosetta 2 (DE3) pLysS
Description: as §1, §2, §3

DOT1L (1-416) = molecular target: T3, DOT1L (1-416) (Homo sapiens, UniProt Q8TEK3); experiment: STD-NMR fragment screening, DOT1L; details: for DOT1L (STD-NMR hit flag): 1 = hit, 0 = no hit
T3 construct: made in house; host or cells: E. coli BL21 (DE3) pLysS
Description: as §1, §2, §3

[1] = 1 mM fragment, 20 µM protein, hit if peak in difference spectrum three times higher than local noise

T3 sequence (Q8TEK3 1-416): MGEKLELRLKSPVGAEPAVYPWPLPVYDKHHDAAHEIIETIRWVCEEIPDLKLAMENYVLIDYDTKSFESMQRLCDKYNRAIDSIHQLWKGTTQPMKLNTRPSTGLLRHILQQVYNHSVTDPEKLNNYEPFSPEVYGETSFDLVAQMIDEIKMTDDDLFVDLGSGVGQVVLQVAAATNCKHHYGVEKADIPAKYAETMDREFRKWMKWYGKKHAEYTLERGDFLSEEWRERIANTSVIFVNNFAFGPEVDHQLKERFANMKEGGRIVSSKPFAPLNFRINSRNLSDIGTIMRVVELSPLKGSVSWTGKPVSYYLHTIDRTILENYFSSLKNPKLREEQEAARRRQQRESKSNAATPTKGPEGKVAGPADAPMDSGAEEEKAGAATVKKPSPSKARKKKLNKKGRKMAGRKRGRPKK
T1 sequence (Q96NX5 1-320): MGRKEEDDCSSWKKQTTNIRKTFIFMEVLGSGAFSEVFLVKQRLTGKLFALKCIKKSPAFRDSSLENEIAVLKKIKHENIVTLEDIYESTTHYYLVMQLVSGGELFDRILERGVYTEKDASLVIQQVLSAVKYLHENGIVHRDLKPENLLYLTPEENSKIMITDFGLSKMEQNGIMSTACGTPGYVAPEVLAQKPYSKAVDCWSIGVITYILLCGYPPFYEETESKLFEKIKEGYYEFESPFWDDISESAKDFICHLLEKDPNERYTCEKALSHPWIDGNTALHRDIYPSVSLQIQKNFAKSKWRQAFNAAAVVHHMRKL
T2 sequence (P14902 whole entry, the tested form may be a part): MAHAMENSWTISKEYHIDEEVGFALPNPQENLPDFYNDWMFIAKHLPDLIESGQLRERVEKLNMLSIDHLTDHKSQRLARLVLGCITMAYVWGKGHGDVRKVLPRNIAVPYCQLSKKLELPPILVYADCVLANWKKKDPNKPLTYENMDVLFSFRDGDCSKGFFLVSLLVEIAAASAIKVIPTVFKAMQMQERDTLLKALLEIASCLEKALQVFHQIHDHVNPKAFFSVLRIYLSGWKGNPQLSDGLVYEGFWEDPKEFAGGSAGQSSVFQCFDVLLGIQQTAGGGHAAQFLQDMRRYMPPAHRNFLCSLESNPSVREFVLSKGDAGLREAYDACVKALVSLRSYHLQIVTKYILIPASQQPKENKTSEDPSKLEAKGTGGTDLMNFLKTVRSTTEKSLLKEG
Chain of AAK1 (121-471) (Q2M2I8 46-315 limits assumed): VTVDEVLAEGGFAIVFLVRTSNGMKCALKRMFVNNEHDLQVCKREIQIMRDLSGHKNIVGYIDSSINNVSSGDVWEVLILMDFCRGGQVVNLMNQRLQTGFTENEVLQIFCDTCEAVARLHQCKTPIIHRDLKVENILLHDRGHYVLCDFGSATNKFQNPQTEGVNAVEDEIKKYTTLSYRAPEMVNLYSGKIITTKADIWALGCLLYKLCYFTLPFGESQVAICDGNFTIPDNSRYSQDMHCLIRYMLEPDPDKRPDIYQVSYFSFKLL

Structure (SMILES): Cn1c(Cl)c(C#N)c(=O)n(C)c1=O [Fragment 1234]
- STD-NMR hit (CAMK1G (1-320); [1]): pan-target hit
- STD-NMR hit (AAK1 (121-471)): pan-target hit
- STD-NMR hit (IDO1 (1-435); [1]): pan-target hit
- STD-NMR hit (DOT1L (1-416); [1]): pan-target hit

Structure (SMILES): Oc1ccc(Cl)cc1 [Fragment 4485]
- STD-NMR hit (AAK1 (121-471)): none of the signals of fragment 4485 (Signal 4 and 5) are distinguishable from the baseline noise

Structure (SMILES): NC(CCO)c1ccc(Cl)cc1Cl (stereo not shown) [Fragment B02289594]
- CAMK1G (STD-NMR hit flag) (CAMK1G (1-320)): 0
- AAK1 (STD-NMR hit flag) (AAK1 (121-471)): 0
- IDO1 (STD-NMR hit flag) (IDO1 (1-435)): 0
- DOT1L (STD-NMR hit flag) (DOT1L (1-416)): 0

Structure (SMILES): Clc1ncnc2cc[nH]c12 [Fragment B02289595]
- CAMK1G (STD-NMR hit flag) (CAMK1G (1-320)): 1
- AAK1 (STD-NMR hit flag) (AAK1 (121-471)): 1
- IDO1 (STD-NMR hit flag) (IDO1 (1-435)): 0
- DOT1L (STD-NMR hit flag) (DOT1L (1-416)): 0

Structure (SMILES): Cc1noc(C)c1Br [Fragment B02289596]
- CAMK1G (STD-NMR hit flag) (CAMK1G (1-320)): 1
- AAK1 (STD-NMR hit flag) (AAK1 (121-471)): 0
- IDO1 (STD-NMR hit flag) (IDO1 (1-435)): 0
- DOT1L (STD-NMR hit flag) (DOT1L (1-416)): 0

Structure (SMILES): O=C(O)c1cccc(Cl)n1 [Fragment B02289597]
- CAMK1G (STD-NMR hit flag) (CAMK1G (1-320)): 0
- AAK1 (STD-NMR hit flag) (AAK1 (121-471)): 0
- IDO1 (STD-NMR hit flag) (IDO1 (1-435)): 0
- DOT1L (STD-NMR hit flag) (DOT1L (1-416)): 0

Structure (SMILES): OB(O)c1ccc(Cl)nc1F [Fragment B02289599]
- CAMK1G (STD-NMR hit flag) (CAMK1G (1-320)): 0
- AAK1 (STD-NMR hit flag) (AAK1 (121-471)): 0
- IDO1 (STD-NMR hit flag) (IDO1 (1-435)): 0
- DOT1L (STD-NMR hit flag) (DOT1L (1-416)): 0

Structure (SMILES): Nc1ncccc1I [Fragment B02289600]
- CAMK1G (STD-NMR hit flag) (CAMK1G (1-320)): 1
- AAK1 (STD-NMR hit flag) (AAK1 (121-471)): 0
- IDO1 (STD-NMR hit flag) (IDO1 (1-435)): 0
- DOT1L (STD-NMR hit flag) (DOT1L (1-416)): 0

Structure (SMILES): O=[N+]([O-])c1cnc(Br)[nH]1 [Fragment B02289601]
- CAMK1G (STD-NMR hit flag) (CAMK1G (1-320)): 0
- AAK1 (STD-NMR hit flag) (AAK1 (121-471)): 1
- IDO1 (STD-NMR hit flag) (IDO1 (1-435)): 1
- DOT1L (STD-NMR hit flag) (DOT1L (1-416)): 0

Structure (SMILES): O=C(O)c1ccc(Cl)cn1 [Fragment B02289602]
- CAMK1G (STD-NMR hit flag) (CAMK1G (1-320)): 0
- AAK1 (STD-NMR hit flag) (AAK1 (121-471)): 0
- IDO1 (STD-NMR hit flag) (IDO1 (1-435)): 0
- DOT1L (STD-NMR hit flag) (DOT1L (1-416)): 0

Structure (SMILES): Nc1cccc(Br)c1O [Fragment B02289603]
- CAMK1G (STD-NMR hit flag) (CAMK1G (1-320)): 0
- AAK1 (STD-NMR hit flag) (AAK1 (121-471)): 0
- IDO1 (STD-NMR hit flag) (IDO1 (1-435)): 0
- DOT1L (STD-NMR hit flag) (DOT1L (1-416)): 0

Structure (SMILES): O=C(O)c1cncc(Cl)c1 [Fragment B02289604]
- CAMK1G (STD-NMR hit flag) (CAMK1G (1-320)): 0
- AAK1 (STD-NMR hit flag) (AAK1 (121-471)): 1
- IDO1 (STD-NMR hit flag) (IDO1 (1-435)): 0
- DOT1L (STD-NMR hit flag) (DOT1L (1-416)): 0

Structure (SMILES): Nc1ccc2[nH]nc(Br)c2c1 [Fragment B02289605]
- CAMK1G (STD-NMR hit flag) (CAMK1G (1-320)): 1
- AAK1 (STD-NMR hit flag) (AAK1 (121-471)): 0
- IDO1 (STD-NMR hit flag) (IDO1 (1-435)): 0
- DOT1L (STD-NMR hit flag) (DOT1L (1-416)): 0

Structure (SMILES): OCc1ccc(Cl)nc1 [Fragment B02289606]
- CAMK1G (STD-NMR hit flag) (CAMK1G (1-320)): 0
- AAK1 (STD-NMR hit flag) (AAK1 (121-471)): 0
- IDO1 (STD-NMR hit flag) (IDO1 (1-435)): 0
- DOT1L (STD-NMR hit flag) (DOT1L (1-416)): 0

Structure (SMILES): Nc1cnccc1I [Fragment B02289607]
- CAMK1G (STD-NMR hit flag) (CAMK1G (1-320)): 0
- AAK1 (STD-NMR hit flag) (AAK1 (121-471)): 1
- IDO1 (STD-NMR hit flag) (IDO1 (1-435)): 0
- DOT1L (STD-NMR hit flag) (DOT1L (1-416)): 0

Structure (SMILES): COc1nc(N)ncc1I [Fragment B02289608]
- CAMK1G (STD-NMR hit flag) (CAMK1G (1-320)): 1
- AAK1 (STD-NMR hit flag) (AAK1 (121-471)): 1
- IDO1 (STD-NMR hit flag) (IDO1 (1-435)): 0
- DOT1L (STD-NMR hit flag) (DOT1L (1-416)): 0
